These results are taken from patent US20080187588A1, “Formulations With Controlled Release Of Active Ingredient” (Bayer HealthCare AG, priority 2004, published 2008).

As a reminder, the solubility is how much of the substance goes into solution per volume. Higher therefore signals a readily soluble substance.

SMILES strings stand for the structures. Counter-ions that a name gives are not always drawn.

For series [1] the following is noted: cited from earlier work.
A short description of series [2]: pH-dependent solubility of vardenafil hydrochloride trihydrate. The series is classed as physicochemical. An excerpt:
This great pH-dependence represents a hindrance in particular to the development of pharmaceutical dosage forms with controlled release of active ingredient for oral use, because the medicinal form is exposed on passage through the gastrointestinal (GI) tract to media with pH values varying greatly from about pH 1 to pH 7.5. In order to achieve a sufficient bioavailability from a slow-release medicinal form, a substance must be absorbed if possible over the entire gastrointestinal tract. […] A slowing of the release of active ingredient usually leads in the case of substances subject to a very large first-pass effect to complete loss of the oral bioavailability, because the slow rise in level of the active ingredient means that the concentrations in the portal vein blood remain so low that the capacity of the metabolizing liver enzymes is sufficient for complete degradation.

For the compound `CCCc1nc(C)c2c(=O)[nH]c(-c3cc(S(=O)(=O)N4CCN(CC)CC4)ccc3OCC)nn12` [vardenafil, {2-ethoxy-5-[(4-ethyl-1-piperazinyl)sulphonyl]phenyl}-5-methyl-7-propylimidazo[5,1-f]triazin-4(3H)-one], the absolute oral bioavailability in series [1] is 15%.

For `CCCc1nc(C)c2c(=O)[nH]c(-c3cc(S(=O)(=O)N4CCN(CC)CC4)ccc3OCC)nn12` [vardenafil hydrochloride trihydrate], the solubility was 0.87 mg/mL in series [2] (aqueous buffer, in 0.15 M phosphate buffer of pH 4); 0.03 mg/mL in series [2] (aqueous buffer, in 0.15 M phosphate buffer of pH 7); 65 mg/mL in series [2] (simulated gastric fluid, in 0.1 N hydrochloric acid).
